# Laboratory results reported in article PMC6983991, “Toxicity and Anti-promastigote Activity of Benzoxazinoid Analogs Against Leishmania (Viannia) braziliensis and Leishmania (Leishmania) infantum” (Advanced Pharmaceutical Bulletin, 2019).
# Where two headings read alike, the source gives them in different places.
# Legend:
# [1] = test system: Leishmania (L.) infantum (MHOM/BR/74/PP75) promastigotes; assay: Anti-promastigote activity, MTT colorimetric assay; format: cell-based
# Method: (§1) Promastigotes of Leishmania (V.) braziliensis (MHOM/BR/75/M2903) and Leishmania (L.) infantum (MHOM/BR/74/PP75) were grown in a biphasic medium. The solid phase was composed of Nicolle–Novy–MacNeals (NNN) medium with 15% defibrillated rabbit blood. Already in the liquid phase, we employed Roswell Park Memorial Institute (RPMI)-1640 (Sigma-Aldrich, St. Louis, USA) or Liver Infusion Tryptose (LIT) medium with 15% fetal bovine serum (Gibco – Thermo Fisher Scientific, Waltham USA), both supplemented with 1% of penicillin-streptomycin antibiotic solutions (10.000 U/mL of penicillin and 10.000 μg/mL of streptomycin; Gibco – Thermo Fisher Scientific, Waltham, USA). Cultures were maintained in an incubator at 25°C until parasites reached logarithmic phase (4 days). Next, the cultures were centrifuged and the pellet was suspended in RPMI-1640 or LIT for counting promastigotes using a Neubauer hemocytometer under an optical microscope (Axiostar Plus Carl Zeiss, Jena, Germany) at 400x magnification. Subsequently, parasites were diluted in RPMI-1640 or LIT medium at a final concentration of 1 x 10^6parasites/mL for use in antileishmanial assays.
# (§2) The 50% inhibitory concentration (IC50) against L. (V.) braziliensis and L. (L.) infantum was evaluated by determination of the parasite viability using the colorimetric 3-(4,5-dimethylthiazol-2-yl)-2,5-diphenyltetrazolium bromide (MTT) method.[19] Initially, 100 μL of the promastigote suspension prepared in RPMI-1640 or LIT medium (1 × 10^6cells/mL) was added in each well of the 96-well microplate. Parasites were then treated with two-fold serial dilutions (from 3.12 to 400 µg/mL) of Bex-derived analogs prepared in 10% dimethyl sulfoxide (DMSO) (Sigma-Aldrich, St. Louis, USA) and the microplates were incubated at 25°C for 48 h. Next, 20 μL of MTT solution at 5 mg/mL (Sigma-Aldrich, St. Louis, USA) was added to the parasite cultures and the plates were covered with laminated paper and incubated at 37°C for 4 h. Finally, the plates were centrifuged at 1500 rpm for 15 min at 4°C (Heraeus-Megafuge 11R Centrifuge - Thermo Fisher Scientific, Waltham USA) and the formazan crystals formed were dissolved by the addition of 200 μL 10% DMSO. After further incubation for 5 min at room temperature, absorbance at 570 nm of samples measured using a microplate reader (Metller Toledo, Brazil). Meglumine antimoniate (Glucantime®Sanofi-aventis, France) and amphotericin B (Eurofarma, Brazil) were included as positive controls, and 10% DMSO solution was used as a solvent control. Samples containing RPM1-1640 or LIT only were used to control the sterility of media and samples containing inoculum and medium, but not compounds, were employed as growth controls.
# [2] = test system: Leishmania (V.) braziliensis (MHOM/BR/75/M2903) promastigotes; assay: Anti-promastigote activity, MTT colorimetric assay; format: cell-based
# Method: as §1, §2
# Cytotoxicity, MTT assay = format: cell-based; conditions: hamster spleen cells, 48 h exposure
# Method: (§3) Hamster spleen cells were used to test cytotoxicity. The cells were kindly provided by Dr. Rosy Iara Maciel de Azambuja Ribeiro from of Laboratory of Experimental Pathology/UFSJ. The cells were cultivated in saline solution (NaCl 0.9%; Synth, Brazil) and maintained at 37°C in an incubator with an atmosphere containing 5% CO2 (Thermo Fisher Scientific, Waltham, USA).
# (§4) Cytotoxic concentration determinations for 50% of the cells in culture (CC50) were evaluated by using the colorimetric 3-(4,5-dimethylthiazol-2-yl)-2,5-diphenyltetrazolium bromide (MTT) method, following protocols outlined in a previous study.[19] Briefly, spleen cells were exposed for 48h to several concentrations of compounds (3, 6.25, 12.5, 25, 50, 100, 200, 400 and 800 µg/mL) and, afterward, the MTT assay was used to quantify the cell viability as was done using the anti-promastigote assay. Finally, CC50 values were calculated by linear regression analysis of absorbance values obtained previously.[20]
# (§5) The selectivity of Bex analogs and antileishmanial agents was determined to evaluate the safety of compounds. Thus, the selectivity index (SI) was calculated through the ratio between the CC50 of compounds against the hamster spleen cells and the geometric mean (GM) of IC50 values calculated for L. (V.) braziliensis and L. (L.) infantum.[21] In the case where CC50 was higher than the highest concentration tested of the compound, to calculate the SI, the value used was 400. The larger SI was indicative of a safer molecule.
# Staphylococcus aureus = test system: Staphylococcus aureus; design: method as in PMID 16042337; conditions: microdilution broth assays; cited from earlier work
# Streptococcus mutans = test system: Streptococcus mutans; design: method as in PMID 16042337; conditions: microdilution broth assays; cited from earlier work
# Escherichia coli = test system: Escherichia coli; design: method as in PMID 16042337; conditions: microdilution broth assays; cited from earlier work
# Bacillus subtilis = test system: Bacillus subtilis; design: method as in PMID 26166773; conditions: disc diffusion, 2 mg/disk; cited from earlier work
# Pseudomonas aeruginosa = test system: Pseudomonas aeruginosa; design: method as in PMID 26166773; conditions: disc diffusion, 2 mg/disk; cited from earlier work
# Enterococcus faecalis = test system: Enterococcus faecalis; design: method as in PMID 26166773; conditions: disc diffusion, 2 mg/disk; cited from earlier work
# [3] = test system: S. aureus methicillin-resistant; design: method as in PMID 26166773; conditions: disc diffusion, 2 mg/disk; cited from earlier work
# Klebsiella pneumoniae = test system: Klebsiella pneumoniae; design: method as in PMID 26166773; conditions: disc diffusion, 2 mg/disk; cited from earlier work
# [4] = test system: E. coli extended-spectrum β-lactamases produced; design: method as in PMID 26166773; conditions: disc diffusion, 2 mg/disk; cited from earlier work
# [5] = test system: rat mast cells stimulated with concanavalin A and sensitized with immunoglobulin E; design: method as in PMID 2453615; conditions: cited from earlier work
# [6] = test system: reverse transcriptase from human immunodeficiency virus(HIV); conditions: cited from earlier work
# Hamster spleen cells = assay: Cytotoxicity, MTT assay; format: cell-based; conditions: 48 h exposure
# Method: as §3, §4, §5
# [7] = geometric mean of IC50 in LIT and RPMI-1640, read-out: GM (geometric mean of IC50 values) L. infantum
# [8] = promastigotes, LIT medium, 48 h, 25°C, MTT, read-out: IC50 L. infantum LIT
# [9] = promastigotes, RPMI-1640 medium, 48 h, 25°C, MTT, read-out: IC50 L. infantum RPMI-1640
# [10] = geometric mean of IC50 in LIT and RPMI-1640, read-out: GM (geometric mean of IC50 values) L. braziliensis
# [11] = promastigotes, LIT medium, 48 h, 25°C, MTT, read-out: IC50 L. braziliensis LIT
# [12] = promastigotes, RPMI-1640 medium, 48 h, 25°C, MTT, read-out: IC50 L. braziliensis RPMI-1640
# [13] = geometric mean of IC50 in LIT and RPMI-1640
# [14] = promastigotes, LIT medium, 48 h, 25°C, MTT
# [15] = promastigotes, RPMI-1640 medium, 48 h, 25°C, MTT
Molecule,"IC50 [1, 7]","IC50 [1, 8]","IC50 [1, 9]","IC50 [2, 10]","IC50 [2, 11]","IC50 [2, 12]","CC50 at 48 h (Cytotoxicity, MTT assay)",also measured
"C[C@@H]1[C@H](O)[C@@H](C)/C=C/C=C/C=C/C=C/C=C/C=C/C=C/[C@H](O[C@@H]2O[C@H](C)[C@@H](O)[C@H](N)[C@@H]2O)C[C@@H]2O[C@](O)(C[C@@H](O)C[C@@H](O)[C@H](O)CC[C@@H](O)C[C@@H](O)CC(=O)O[C@H]1C)C[C@H](O)[C@H]2C(=O)O [ANFO, Amphotericin B, reference compound]",41.5 µg/mL,41.6 ± 4.27 µg/mL,41.5 ± 0.99 µg/mL,33.4 µg/mL,33.3 ± 3.66 µg/mL,33.4 ± 3.01 µg/mL,89.3 ± 2.24 µg/mL,–
"O=c1[nH]c2ccccc2o1 [BOA, benzoxazolin-2-one]",–,–,–,–,–,–,–,"Concentration exhibiting antibacterial effects (Staphylococcus aureus): 500 µg/mL; Concentration exhibiting antibacterial effects (Streptococcus mutans): 500 µg/mL; Concentration exhibiting antibacterial effects (Escherichia coli): 1,000 μg/mL"
O=C1COc2ccccc2N1O [Bex1],–,174 ± 3.39 µg/mL,188 ± 3.58 µg/mL,–,212 ± 6.04 µg/mL,238 ± 6.57 µg/mL,–,–
CC1Oc2ccccc2N(O)C1=O (centres unmarked) [Bex2],108 µg/mL,106 ± 5.61 µg/mL,111 ± 5.69 µg/mL,106 µg/mL,103 ± 4.36 µg/mL,109 ± 4.44 µg/mL,274.3 ± 1.87 µg/mL,–
CCC1Oc2ccccc2N(O)C1=O (centres unmarked) [Bex3],91 µg/mL,89 ± 6.43 µg/mL,93 ± 6.48 µg/mL,94.5 µg/mL,92 ± 6.19 µg/mL,97 ± 6.24 µg/mL,106 ± 2.26 µg/mL,–
"O=C1C(O)Oc2ccccc2N1O (centres unmarked) [DIBOA, 2,4-dihydroxy-1,4-benzoxazin-3-one]",–,–,–,–,–,–,–,"Concentration exhibiting antibacterial effects (Staphylococcus aureus): 500 µg/mL; Concentration exhibiting antibacterial effects (Streptococcus mutans): 500 µg/mL; Concentration exhibiting antibacterial effects (Escherichia coli): 1,000 μg/mL"
"COc1ccc2c(c1)OC(O)C(=O)N2O (centres unmarked) [DIMBOA, 2,4-dihydroxy-7-methoxy-1,4-benzoxazin-3-one]",–,–,–,–,–,–,–,Antibacterial activity (Bacillus subtilis): active; Antibacterial activity (Pseudomonas aeruginosa): active; Antibacterial activity (Enterococcus faecalis): active; Antibacterial activity [3]: active; Antibacterial activity (Klebsiella pneumoniae): active; Antibacterial activity [4]: active
"O=C1Nc2ccccc2OC1O (centres unmarked) [HBOA, 2-hydroxy-1,4-benzoxazin-3-one]",–,–,–,–,–,–,–,"Concentration exhibiting antibacterial effects (Staphylococcus aureus): 500 µg/mL; Effect on levels of histamine released from rat mast cells [5]: able to reduce levels of histamine; Concentration exhibiting antibacterial effects (Streptococcus mutans): 500 µg/mL; Concentration exhibiting antibacterial effects (Escherichia coli): 1,000 μg/mL"
COc1ccc2c(c1)OC(O)C(=O)N2 (centres unmarked) [HMBOA],–,–,–,–,–,–,–,Effect on levels of histamine released from rat mast cells [5]: able to reduce levels of histamine
"COc1ccc2[nH]c(=O)oc2c1 [MBOA, 6-methoxy-benzoxazolin-2-one]",–,–,–,–,–,–,–,Effect on levels of histamine released from rat mast cells [5]: able to reduce levels of histamine; Inhibition of HIV reverse transcriptase [6]: able to inhibit
O=C1COc2cccnc2N1O [Pyr1],101 µg/mL,99 ± 5.61 µg/mL,103 ± 5.64 µg/mL,111 µg/mL,108 ± 5.91 µg/mL,115 ± 6.04 µg/mL,> 400 µg/mL,–
CC1Oc2cccnc2N(O)C1=O (centres unmarked) [Pyr2],115 µg/mL,112 ± 5.34 µg/mL,118 ± 5.45 µg/mL,102 µg/mL,100 ± 5.18 µg/mL,105 ± 5.23 µg/mL,> 400 µg/mL,–
CCC1Oc2cccnc2N(O)C1=O (centres unmarked) [Pyr3],–,149 ± 6.35 µg/mL,160 ± 6.62 µg/mL,–,141 ± 5.94 µg/mL,152 ± 6.17 µg/mL,–,–
CCCC1Oc2cccnc2N(O)C1=O (centres unmarked) [Pyr4],93 µg/mL,91 ± 6 µg/mL,95 ± 6.05 µg/mL,100 µg/mL,98 ± 5.94 µg/mL,103 ± 5.99 µg/mL,202 ± 2.11 µg/mL,–
CCCCC1Oc2cccnc2N(O)C1=O (centres unmarked) [Pyr5],–,135 ± 4.13 µg/mL,143 ± 4.25 µg/mL,–,142 ± 3.67 µg/mL,154 ± 3.85 µg/mL,–,–
Meglumine antimoniate [reference compound],–,–,–,–,–,–,–,"GM (geometric mean of IC50 values) L. infantum [1, 13]: 99.47 µg/mL; IC50 L. infantum LIT [1, 14]: 97 ± 3.14 µg/mL; IC50 L. infantum RPMI-1640 [1, 15]: 102 ± 3.54 µg/mL; GM (geometric mean of IC50 values) L. braziliensis [2, 13]: 97.5 µg/mL; IC50 L. braziliensis LIT [2, 14]: 97 ± 4.34 µg/mL; IC50 L. braziliensis RPMI-1640 [2, 15]: 98 ± 4.45 µg/mL; CC50 (Hamster spleen cells): >400 µg/mL"
